For one assay, the target named is HDAC-1 (Homo sapiens, UniProt Q13547). Nature of the assay: HDAC Fluorescent Activity Assay (Fluor de Lys), HDAC-1.
The next assay deals with HDAC-2 (Homo sapiens, UniProt Q92769). The assay can be described thus: HDAC Fluorescent Activity Assay (Fluor de Lys), HDAC-2.
A further assay has as its target HDAC-3 (Homo sapiens, UniProt O15379). The assay can be described thus: HDAC Fluorescent Activity Assay (Fluor de Lys), HDAC-3.
Another assay addresses HDAC-8 (Homo sapiens, UniProt Q9BY41). The assay can be described thus: HDAC Fluorescent Activity Assay (Fluor de Lys), HDAC-8.
Another assay addresses HDAC-4 (Homo sapiens, UniProt P56524). The assay can be described thus: HDAC Fluorescent Activity Assay (Fluor de Lys), HDAC-4.
The target in the next assay is HDAC-5 (Homo sapiens, UniProt Q9UQL6). The assay can be described thus: HDAC Fluorescent Activity Assay (Fluor de Lys), HDAC-5.
Another assay deals with HDAC-7 (Homo sapiens, UniProt Q8WUI4). The assay can be described thus: HDAC Fluorescent Activity Assay (Fluor de Lys), HDAC-7.
The target in the next assay is HDAC-9 (Homo sapiens, UniProt Q9UKV0). The assay can be described thus: HDAC Fluorescent Activity Assay (Fluor de Lys), HDAC-9.
A further assay has as its target HDAC-6 (Homo sapiens, UniProt Q9UBN7). Nature of the assay: HDAC Fluorescent Activity Assay (Fluor de Lys), HDAC-6.
Another assay deals with HDAC-10 (Homo sapiens, UniProt Q969S8). The assay can be described thus: HDAC Fluorescent Activity Assay (Fluor de Lys), HDAC-10.
The target in another assay is HDAC-11 (Homo sapiens, UniProt Q96DB2). Nature of the assay: HDAC Fluorescent Activity Assay (Fluor de Lys), HDAC-11.
In another assay the test system is ovarian xenograft. Particulars: cited from earlier work.
Another assay has as its target TTK/Mps1 (Homo sapiens, UniProt P33981). Particulars: TTK/Mps1 inhibitors of the literature; cited from earlier work.

SMILES strings stand for the structures.

The IC50 is the concentration needed to halve the response being measured.

HDAC-2, sequence (Q92769 whole entry): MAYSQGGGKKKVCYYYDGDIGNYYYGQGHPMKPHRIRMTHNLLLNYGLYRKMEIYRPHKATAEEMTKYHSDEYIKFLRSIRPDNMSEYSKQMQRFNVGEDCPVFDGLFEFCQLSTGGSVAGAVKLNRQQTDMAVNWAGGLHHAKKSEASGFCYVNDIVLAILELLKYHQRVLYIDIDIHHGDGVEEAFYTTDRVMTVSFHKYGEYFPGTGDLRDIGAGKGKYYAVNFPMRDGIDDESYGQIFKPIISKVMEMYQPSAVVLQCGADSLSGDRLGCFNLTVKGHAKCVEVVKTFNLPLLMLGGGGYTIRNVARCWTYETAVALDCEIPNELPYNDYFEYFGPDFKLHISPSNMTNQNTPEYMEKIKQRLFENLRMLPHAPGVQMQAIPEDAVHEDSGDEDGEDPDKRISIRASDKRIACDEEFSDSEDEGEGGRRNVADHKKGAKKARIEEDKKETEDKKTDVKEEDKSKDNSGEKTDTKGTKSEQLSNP
HDAC-3, sequence (O15379 whole entry): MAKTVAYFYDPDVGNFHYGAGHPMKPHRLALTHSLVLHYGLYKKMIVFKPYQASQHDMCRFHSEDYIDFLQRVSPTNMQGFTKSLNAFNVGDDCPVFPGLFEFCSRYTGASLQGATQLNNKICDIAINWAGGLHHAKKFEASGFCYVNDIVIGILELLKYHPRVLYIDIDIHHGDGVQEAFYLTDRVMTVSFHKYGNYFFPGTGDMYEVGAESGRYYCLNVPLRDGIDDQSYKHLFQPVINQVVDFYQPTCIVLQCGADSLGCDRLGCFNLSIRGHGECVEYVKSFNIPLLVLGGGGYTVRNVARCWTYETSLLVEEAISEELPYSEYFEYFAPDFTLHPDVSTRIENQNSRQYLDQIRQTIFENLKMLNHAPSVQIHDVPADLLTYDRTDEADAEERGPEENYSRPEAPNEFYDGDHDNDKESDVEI
HDAC-3, sequence (Q9Y618 395-489 partner limits assumed): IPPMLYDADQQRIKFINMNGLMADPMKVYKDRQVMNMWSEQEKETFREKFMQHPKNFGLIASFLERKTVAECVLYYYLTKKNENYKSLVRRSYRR
HDAC-9, sequence (Q9UKV0 whole entry): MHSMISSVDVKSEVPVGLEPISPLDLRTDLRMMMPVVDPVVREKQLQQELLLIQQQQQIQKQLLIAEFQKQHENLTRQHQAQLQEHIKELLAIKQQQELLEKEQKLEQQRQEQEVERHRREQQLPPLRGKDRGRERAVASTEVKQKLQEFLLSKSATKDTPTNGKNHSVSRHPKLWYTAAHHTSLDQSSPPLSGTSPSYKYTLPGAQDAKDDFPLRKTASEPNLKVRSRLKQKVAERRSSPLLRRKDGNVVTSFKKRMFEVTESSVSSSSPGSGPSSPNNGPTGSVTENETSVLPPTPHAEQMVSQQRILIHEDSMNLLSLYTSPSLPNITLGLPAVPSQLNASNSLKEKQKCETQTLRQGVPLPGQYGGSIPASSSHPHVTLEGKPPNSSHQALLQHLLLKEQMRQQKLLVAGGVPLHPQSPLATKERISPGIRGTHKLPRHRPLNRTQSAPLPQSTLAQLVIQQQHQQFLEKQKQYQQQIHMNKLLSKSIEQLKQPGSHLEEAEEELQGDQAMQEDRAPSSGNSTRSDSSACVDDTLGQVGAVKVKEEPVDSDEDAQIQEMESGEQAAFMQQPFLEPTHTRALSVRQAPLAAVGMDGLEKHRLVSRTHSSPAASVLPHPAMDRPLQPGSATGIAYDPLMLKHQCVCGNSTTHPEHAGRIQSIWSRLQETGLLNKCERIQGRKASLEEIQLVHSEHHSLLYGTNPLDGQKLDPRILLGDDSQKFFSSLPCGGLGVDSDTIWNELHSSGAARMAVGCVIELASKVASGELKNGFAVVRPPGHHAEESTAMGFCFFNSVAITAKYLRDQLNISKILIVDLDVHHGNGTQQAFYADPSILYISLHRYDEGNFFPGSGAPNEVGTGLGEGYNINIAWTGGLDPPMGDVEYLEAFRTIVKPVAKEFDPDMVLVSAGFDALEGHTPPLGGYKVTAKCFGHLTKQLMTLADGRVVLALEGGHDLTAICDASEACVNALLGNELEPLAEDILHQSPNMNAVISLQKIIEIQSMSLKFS
HDAC-1, sequence (Q13547 whole entry): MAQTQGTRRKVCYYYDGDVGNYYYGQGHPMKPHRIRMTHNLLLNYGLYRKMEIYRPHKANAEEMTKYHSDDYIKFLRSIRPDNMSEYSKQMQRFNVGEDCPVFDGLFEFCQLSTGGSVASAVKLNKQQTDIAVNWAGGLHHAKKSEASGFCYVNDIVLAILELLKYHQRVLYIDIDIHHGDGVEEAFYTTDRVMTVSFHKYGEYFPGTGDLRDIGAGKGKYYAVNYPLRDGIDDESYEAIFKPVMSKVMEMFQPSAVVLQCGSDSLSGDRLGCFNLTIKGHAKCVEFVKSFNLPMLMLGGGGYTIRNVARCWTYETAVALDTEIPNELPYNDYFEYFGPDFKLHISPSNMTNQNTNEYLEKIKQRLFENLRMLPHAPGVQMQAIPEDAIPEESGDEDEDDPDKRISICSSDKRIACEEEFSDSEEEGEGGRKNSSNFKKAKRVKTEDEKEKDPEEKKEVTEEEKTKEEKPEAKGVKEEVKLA
HDAC-5, sequence (Q9UQL6 whole entry): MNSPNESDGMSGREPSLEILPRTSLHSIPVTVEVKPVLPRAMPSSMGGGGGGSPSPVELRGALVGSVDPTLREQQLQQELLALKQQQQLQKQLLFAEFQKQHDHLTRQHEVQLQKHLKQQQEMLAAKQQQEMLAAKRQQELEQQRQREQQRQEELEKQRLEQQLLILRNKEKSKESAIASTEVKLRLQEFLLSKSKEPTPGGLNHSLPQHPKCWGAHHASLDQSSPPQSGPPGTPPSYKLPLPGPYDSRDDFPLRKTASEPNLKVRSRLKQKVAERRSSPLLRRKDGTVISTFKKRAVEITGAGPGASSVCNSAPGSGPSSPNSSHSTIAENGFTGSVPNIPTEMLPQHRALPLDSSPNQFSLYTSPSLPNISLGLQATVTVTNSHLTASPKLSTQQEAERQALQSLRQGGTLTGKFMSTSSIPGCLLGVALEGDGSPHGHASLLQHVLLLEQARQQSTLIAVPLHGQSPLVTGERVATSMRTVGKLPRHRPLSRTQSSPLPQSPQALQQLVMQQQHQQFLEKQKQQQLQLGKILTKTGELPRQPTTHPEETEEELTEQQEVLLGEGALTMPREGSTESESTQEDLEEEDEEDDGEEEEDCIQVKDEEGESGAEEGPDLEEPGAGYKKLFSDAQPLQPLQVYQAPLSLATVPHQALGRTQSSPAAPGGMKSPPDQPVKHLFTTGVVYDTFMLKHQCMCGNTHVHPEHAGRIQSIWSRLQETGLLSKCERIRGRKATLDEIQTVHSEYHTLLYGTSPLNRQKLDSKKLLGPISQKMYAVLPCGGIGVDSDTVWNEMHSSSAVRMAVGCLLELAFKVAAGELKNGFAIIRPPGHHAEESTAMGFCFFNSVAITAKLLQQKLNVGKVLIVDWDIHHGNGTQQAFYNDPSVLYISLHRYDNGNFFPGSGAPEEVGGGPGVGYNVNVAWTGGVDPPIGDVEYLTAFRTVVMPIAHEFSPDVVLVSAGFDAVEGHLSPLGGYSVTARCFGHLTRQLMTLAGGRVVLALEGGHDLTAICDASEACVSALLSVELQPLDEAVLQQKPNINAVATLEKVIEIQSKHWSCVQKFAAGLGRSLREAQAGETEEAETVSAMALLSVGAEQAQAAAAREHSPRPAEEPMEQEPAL
HDAC-6, sequence (Q9UBN7 whole entry): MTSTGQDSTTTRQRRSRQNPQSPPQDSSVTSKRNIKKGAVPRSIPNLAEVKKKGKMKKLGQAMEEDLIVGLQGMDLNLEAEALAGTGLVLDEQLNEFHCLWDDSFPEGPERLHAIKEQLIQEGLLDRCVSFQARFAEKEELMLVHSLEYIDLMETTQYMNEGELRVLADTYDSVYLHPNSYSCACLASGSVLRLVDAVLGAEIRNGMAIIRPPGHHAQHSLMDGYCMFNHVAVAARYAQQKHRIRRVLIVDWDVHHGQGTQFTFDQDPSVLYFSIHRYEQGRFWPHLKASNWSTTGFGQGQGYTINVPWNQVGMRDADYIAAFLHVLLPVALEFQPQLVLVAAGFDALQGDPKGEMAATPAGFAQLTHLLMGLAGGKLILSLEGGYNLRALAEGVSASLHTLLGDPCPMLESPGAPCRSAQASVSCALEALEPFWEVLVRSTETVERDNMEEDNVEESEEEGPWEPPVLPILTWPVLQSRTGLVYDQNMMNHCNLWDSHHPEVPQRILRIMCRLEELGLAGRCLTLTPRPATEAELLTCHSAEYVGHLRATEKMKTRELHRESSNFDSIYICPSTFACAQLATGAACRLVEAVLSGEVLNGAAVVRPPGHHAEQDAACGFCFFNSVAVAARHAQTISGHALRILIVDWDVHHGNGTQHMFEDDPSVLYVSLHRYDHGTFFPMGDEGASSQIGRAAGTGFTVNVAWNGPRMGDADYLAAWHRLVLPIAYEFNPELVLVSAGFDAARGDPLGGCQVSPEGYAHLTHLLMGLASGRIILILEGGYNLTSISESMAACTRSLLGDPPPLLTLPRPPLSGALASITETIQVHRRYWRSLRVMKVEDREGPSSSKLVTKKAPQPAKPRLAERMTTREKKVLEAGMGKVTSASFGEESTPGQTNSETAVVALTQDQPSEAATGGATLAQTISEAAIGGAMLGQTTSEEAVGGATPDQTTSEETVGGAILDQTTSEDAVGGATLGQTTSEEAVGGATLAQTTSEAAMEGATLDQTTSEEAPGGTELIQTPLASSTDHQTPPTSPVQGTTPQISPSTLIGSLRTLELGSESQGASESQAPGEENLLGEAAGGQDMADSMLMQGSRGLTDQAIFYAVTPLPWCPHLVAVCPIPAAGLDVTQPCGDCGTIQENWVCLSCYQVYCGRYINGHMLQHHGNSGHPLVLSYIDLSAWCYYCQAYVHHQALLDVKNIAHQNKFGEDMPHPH

Take `Cn1cnc2c(NC3CCCCC3)nc(Nc3ccc(OCCCCCCC(=O)NO)cc3)nc21` [Example 8, 7-(4-(6-(Cyclohexylamino)-9-methyl-9H-purin-2-ylamino)phenoxy)-N-hydroxyheptanamide]: the IC50 at HDAC-1 is 23 nM; against HDAC-2 it was 124 nM; against HDAC-3, 140 nM; against HDAC-8 it was 268 nM; at HDAC-4 it was over 100000 nM; against HDAC-5, over 100000 nM. In addition, the 50% inhibitory concentration (IC50) against HDAC-7 was over 100000 nM; on HDAC-9, over 100000 nM; on HDAC-6, 6.8 nM; on HDAC-10 it was 19 nM; on HDAC-11, 12 nM.

Turning to `Cn1cnc2c(NC3CCCCC3)nc(Nc3ccc(OCCCCCC(=O)NO)cc3)nc21` [Example 9, 6-(4-(6-(cyclohexylamino)-9-methyl-9H-purin-2-ylamino)phenoxy)-N-hydroxyhexanamide], the IC50 is 422 nM on HDAC-1; 1640 nM on HDAC-2; 1180 nM on HDAC-3; 225 nM against HDAC-8; over 100000 nM on HDAC-4; over 100000 nM against HDAC-5. Further, the IC50 against HDAC-7 is over 100000 nM; at HDAC-9 it was over 100000 nM; against HDAC-6, 9.8 nM; against HDAC-10, 284 nM; on HDAC-11 it was 159 nM.

With `CCc1cccc(CC)c1NC(=O)c1nn(C)c2c1CCc1cnc(Nc3ccc(C(=O)NC4CCN(C)CC4)cc3OC(F)(F)F)nc1-2` [NMS-P715], the “efficacy in an ovarian xenograft” value in the assay on ovarian xenograft was “promising efficacies”.

For the compound `Oc1c2ccccc2c2c3c(cccc13)N=N2` [SP600125], the IC50 on TTK/Mps1 is 250 nM.

The record behind these values is US9840520B2, “Heterocyclic hydroxamic acids as protein deacetylase inhibitors and dual protein deacetylase-protein kinase inhibitors and methods of use thereof” (The Regents of the University of Colorado, A Body Corporate, priority 2014, dated 2017).
